Assay results from article PMC3432483 (Blood Cancer Journal, 2012).

Tests used:
[1] = tested on: MV4-11 cells; experiment: Mouse hollow-fiber model, MV4-11; type: in vivo; settings: NMRI male mice, 15 mg/kg s.c. twice daily, 6 days
[2] = molecular target: VEGFR2 (Homo sapiens, UniProt P35968); experiment: Full dose-response kinase assay; type: biochemical
[3] = tested on: MV4-11 cells; experiment: Apoptosis assay; type: cell-based, human; settings: 10 μM, up to 48 h
[4] = tested on: CLK kinases; experiment: 320-kinase panel screen, radiometric protein kinase assay, CLK kinases; type: biochemical; settings: 1 μM, 60 min incubation
[5] = molecular target: CDC-like kinase 1 (CLK1) (Homo sapiens, UniProt P49759); experiment: Full dose-response kinase assay; type: biochemical
[6] = tested on: AKT 1, 2, 3; experiment: AKT radiometric protein kinase assay; type: biochemical; settings: 1 μM, 60 min
[7] = tested on: HeLa, ACHN and NCI-H69 cell lines; experiment: FMCA cytotoxicity, solid tumor cell lines; type: cell-based, human; settings: 72 h
[8] = tested on: MV4-11 cells; experiment: FMCA cytotoxicity, MV4-11 cell line; type: cell-based, human
[9] = tested on: primary AML cells; experiment: Mouse hollow-fiber model, primary AML cells; type: in vivo; settings: NMRI male mice, 15 mg/kg s.c. twice daily, 6 days
[10] = Pharmacokinetic studies in C57 black mice; type: in vivo, mouse
[11] = molecular target: RPS6KA; experiment: Full dose-response kinase assay; type: biochemical
[12] = tested on: primary AML cells; experiment: FMCA cytotoxicity, primary AML patient cells; type: cell-based, human
[13] = Plasma protein binding; type: in vitro ADME
[14] = molecular target: FGFR2 (Homo sapiens, UniProt P21802); experiment: biochemical
[15] = tested on: MOLM-13 cells; experiment: Alamar Blue cytotoxicity, MOLM-13 cells; type: cell-based; settings: Homo sapiens, MOLM-13, read-out: cytotoxic activity IC50, MOLM-13
[16] = tested on: MV4-11 cells; experiment: Combination studies with cytarabine or daunorubicin
[17] = tested on: RPS6K; experiment: 320-kinase panel screen, radiometric protein kinase assay, RPS6K; type: biochemical; settings: 1 μM
[18] = tested on: ERK 1, 2; experiment: ERK radiometric protein kinase assay; type: biochemical; settings: 1 μM, 60 min

CDC-like kinase 1 (CLK1), sequence (P49759 whole entry): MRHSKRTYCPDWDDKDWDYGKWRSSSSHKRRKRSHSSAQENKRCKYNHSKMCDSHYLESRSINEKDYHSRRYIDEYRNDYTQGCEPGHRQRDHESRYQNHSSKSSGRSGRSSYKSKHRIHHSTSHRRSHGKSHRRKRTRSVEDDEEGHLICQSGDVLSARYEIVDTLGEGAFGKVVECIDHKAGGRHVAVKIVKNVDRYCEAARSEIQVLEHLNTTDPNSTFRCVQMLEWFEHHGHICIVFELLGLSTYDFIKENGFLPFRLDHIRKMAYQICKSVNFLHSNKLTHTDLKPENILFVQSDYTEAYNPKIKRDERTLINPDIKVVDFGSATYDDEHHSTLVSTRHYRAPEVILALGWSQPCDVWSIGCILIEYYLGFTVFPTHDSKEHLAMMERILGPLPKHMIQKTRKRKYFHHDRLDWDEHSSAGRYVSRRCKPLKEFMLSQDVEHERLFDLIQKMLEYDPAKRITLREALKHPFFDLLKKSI
FGFR2, sequence (P21802 22-821): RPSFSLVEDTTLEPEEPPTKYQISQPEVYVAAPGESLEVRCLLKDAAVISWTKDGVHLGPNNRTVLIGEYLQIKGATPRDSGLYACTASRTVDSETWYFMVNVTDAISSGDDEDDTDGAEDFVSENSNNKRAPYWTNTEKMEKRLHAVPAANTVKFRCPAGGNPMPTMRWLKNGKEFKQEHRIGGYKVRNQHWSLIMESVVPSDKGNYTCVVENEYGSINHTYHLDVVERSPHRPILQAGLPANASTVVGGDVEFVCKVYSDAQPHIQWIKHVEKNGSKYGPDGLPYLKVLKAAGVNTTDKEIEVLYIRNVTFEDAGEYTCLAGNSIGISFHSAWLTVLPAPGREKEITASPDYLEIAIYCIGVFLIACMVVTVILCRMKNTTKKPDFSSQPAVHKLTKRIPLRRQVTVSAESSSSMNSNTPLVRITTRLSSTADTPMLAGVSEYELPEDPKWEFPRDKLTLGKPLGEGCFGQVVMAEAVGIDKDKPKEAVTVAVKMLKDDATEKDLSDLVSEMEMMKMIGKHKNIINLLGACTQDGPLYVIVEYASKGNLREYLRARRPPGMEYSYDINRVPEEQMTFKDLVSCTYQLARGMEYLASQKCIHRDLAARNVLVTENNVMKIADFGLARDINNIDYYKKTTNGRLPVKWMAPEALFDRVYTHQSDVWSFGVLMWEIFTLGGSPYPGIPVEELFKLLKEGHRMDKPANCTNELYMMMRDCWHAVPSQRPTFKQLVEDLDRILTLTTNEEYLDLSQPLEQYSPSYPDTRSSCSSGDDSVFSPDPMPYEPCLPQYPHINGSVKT
VEGFR2, sequence (P35968 20-1356): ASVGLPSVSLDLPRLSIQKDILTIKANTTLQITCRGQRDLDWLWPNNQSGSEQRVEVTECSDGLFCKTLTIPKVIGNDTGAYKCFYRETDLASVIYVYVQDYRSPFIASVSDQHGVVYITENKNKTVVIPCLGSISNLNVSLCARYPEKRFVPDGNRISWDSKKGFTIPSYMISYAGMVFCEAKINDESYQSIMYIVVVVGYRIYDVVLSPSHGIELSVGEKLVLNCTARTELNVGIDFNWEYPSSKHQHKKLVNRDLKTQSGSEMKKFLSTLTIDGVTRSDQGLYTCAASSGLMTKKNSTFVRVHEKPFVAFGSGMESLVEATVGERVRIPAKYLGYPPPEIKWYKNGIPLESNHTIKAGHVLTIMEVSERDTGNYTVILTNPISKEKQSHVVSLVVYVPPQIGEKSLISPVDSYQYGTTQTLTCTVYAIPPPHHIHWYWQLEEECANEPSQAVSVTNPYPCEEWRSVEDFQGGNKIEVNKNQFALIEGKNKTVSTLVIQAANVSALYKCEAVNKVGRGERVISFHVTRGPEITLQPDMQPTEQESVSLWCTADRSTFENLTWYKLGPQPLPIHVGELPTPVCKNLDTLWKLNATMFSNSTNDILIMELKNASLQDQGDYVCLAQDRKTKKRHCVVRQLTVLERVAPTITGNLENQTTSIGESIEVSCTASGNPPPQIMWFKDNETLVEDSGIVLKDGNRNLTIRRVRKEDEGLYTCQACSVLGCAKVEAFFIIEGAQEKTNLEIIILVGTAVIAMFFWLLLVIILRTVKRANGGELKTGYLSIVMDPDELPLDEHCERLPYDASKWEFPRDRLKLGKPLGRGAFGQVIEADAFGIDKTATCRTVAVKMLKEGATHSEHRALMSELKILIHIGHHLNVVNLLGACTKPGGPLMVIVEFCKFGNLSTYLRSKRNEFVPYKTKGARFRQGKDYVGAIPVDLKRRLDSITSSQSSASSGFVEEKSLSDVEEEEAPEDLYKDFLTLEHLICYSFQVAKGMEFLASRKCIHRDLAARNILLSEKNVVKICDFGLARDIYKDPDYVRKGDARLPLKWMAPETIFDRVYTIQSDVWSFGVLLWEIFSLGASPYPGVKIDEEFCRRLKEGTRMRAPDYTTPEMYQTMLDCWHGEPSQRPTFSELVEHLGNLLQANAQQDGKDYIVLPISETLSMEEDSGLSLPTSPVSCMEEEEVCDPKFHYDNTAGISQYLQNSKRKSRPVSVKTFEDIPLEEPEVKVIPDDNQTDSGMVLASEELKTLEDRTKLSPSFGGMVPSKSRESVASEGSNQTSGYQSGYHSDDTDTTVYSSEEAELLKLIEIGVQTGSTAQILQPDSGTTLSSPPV

SMILES: Nc1ncc(-c2ccncc2)nc1Nc1ccc2[nH]ccc2c1 [AKN-028, N-3-(1H-indol-5-yl)-5-pyridin-4-yl-pyrazine-2,3-diamine]
- net growth in hollow fibers, MV4-11 [1]: reduced the tumor mass
- IC50 [2]: 0.52 µM
- apoptosis / caspase 3 activation in MV4-11 [3]: induced apoptosis by activation of caspase 3
- remaining enzyme activity, CLK kinases [4]: Less than 20%
- IC50 [5]: 0.14 µM
- inhibition of AKT 1, 2, 3 [6]: No direct inhibition
- cytotoxic effect in solid tumor cell lines HeLa, ACHN and NCI-H69 [7]: Almost no effect
- IC50 ([8]; Homo sapiens, MV4-11, 72 h, read-out: cytotoxic activity IC50, MV4-11): < 0.05 µM
- net growth in hollow fibers, primary AML sample UPN25 [9]: no significant inhibition
- net growth in hollow fibers, primary AML sample UPN26 [9]: inhibited net growth
- plasma target concentration ([10]; IC90 divided by fraction unbound): 1 to 3 µM
- predicted exposure time above plasma target concentration ([10]; hollow-fiber experiment, twice daily, target 1–3 μM): 1 h
- IC50 RPS6KA [11]: 220 nℳ nM
- IC50 ([12]; Homo sapiens, read-out: mean IC50, primary AML samples, n=15 samples): 1 µM
- fraction unbound [13]: 0.035
- IC50 [14]: 1.2 µM
- IC50 [15]: < 0.05 µM
- drug interaction (mean combination index) with cytarabine ([16]; cytarabine simultaneously or 24 h before AKN-028, cytarabine:AKN-028 2.5:1): synergy
- drug interaction (mean combination index) with daunorubicin ([16]; daunorubicin simultaneously or 24 h before AKN-028, daunorubicin:AKN-028 1:20): synergy
- drug interaction (mean combination index) with cytarabine ([16]; pre-treated with AKN-028 24 h, followed by cytarabine): antagonism
- drug interaction (mean combination index) with daunorubicin ([16]; pre-treated with AKN-028 24 h, followed by daunorubicin): antagonism
- remaining enzyme activity, RPS6K ([17]; 60 min incubation): Less than 20%
- inhibition of ERK 1, 2 [18]: No direct inhibition

SMILES: CC(C)(C)c1cc(NC(=O)Nc2ccc(-c3cn4c(n3)sc3cc(OCCN5CCOCC5)ccc34)cc2)no1 [AC220, reference compound]
- cytotoxic efficacy in MV4-11 ([8]; FMCA dose-response): full efficacy
- cytotoxic response in primary AML samples ([12]; FMCA, 11 additional AML patient samples (UPN 14-24)): varied considerably
- inhibition of RPS6K in kinase-panel screen [17]: did not inhibit
